Assay results as given in patent US9145436B2 (priority 2010, dated 2015).

Tests used:
[1] = Exposure by LCMS analysis of organs; format: in vivo, bALBc mice
Protocol: (§1) To determine the potential for toxic effects of compound 2 in higher animals, compound 2 was administered to bALBc mice orally as a suspension up to a dose of 400 μmole/kg/day for 7 days.
Exposure to the compound was confirmed using LCMS analysis of organs. […] A mild increase in Compound 2 concentration relative the average bodily dose in liver and spleen is clear after 2 h. In kidney the increase appears later, after 24 h.

Ames test (mutagenicity) = format: cell-based; conditions: up to 800 μg/plate (approx. 70 μM); absence and presence of metabolically active liver extract
Protocol: The Ames test is well known in the art. To determine the mutagenic potential of compound 2, it was conducted up to a concentration of 800 μg/plate (approx. 70 μM, considering 20 ml medium in a petri dish).

plasma TNFalpha = test: Liver inflammation induced by LPS, plasma TNFalpha; format: in vivo, Lewis rats; conditions: 10 or 50 mg/kg; LPS 4 mg/kg i.p.; relative to vehicle treated controls
Protocol: FIG. 12. Plasma TNFa production in Lewis rats in which liver damage is induced via injection of LPS (4 mg/kg), data are the mean of N=8 and are plotted with the 95% confidence interval.
Application of high doses of LPS, e.g. 4 mg/kg i.p. results in the induction of liver inflammation and necrosis. This is reflected in signs such as elevated plasma TNFalpha levels. […] Data are recorded in FIG. 12.

E. coli = test: Antibiotic dilution assay, E. coli; format: cell-based; conditions: Escherichia coli; liquid medium, OD600; read-out: Bacterial IC 50 (μM) E. Coli
Protocol: (§2) The antibiotic activity of the compounds was determined via antibiotic dilution assay. After filling 100 μl growth medium into all the wells of a 96 well plate, the compounds were diluted from 1 mM to 0.010 μM. The growth control wells contained growth medium instead of inhibitory agents. The inhibitory control contained Compound 3 (200 μM). Suspensions of E. coli and B. pumilus in growth medium with an approximate OD600 of 0.03-0.04 were added to the diluted compounds, incubated for 6-8 hours on the shaker at 750 rpm and 37° C. until the growth control had reached an OD600 of about 0.6-0.8. The OD600 was then determined on a standard plate reader.
(§3) Various analogs were compared in vitro to determine key properties. Antibacterial effect was determined in representative Gram negative (E. coli) and positive (S. aureus) organisms using the method of example 16. Effects on lung inflammation were compared using the method of example 32. BALF (Bronchoalveolar Lavage Fluid) TNFa levels are determined by ELISA. In vitro toxicity is determined by growth inhibition of Jurkat lymphocytes in DMEM medium as determined using Alamar Blue reaction. Effects on cytokine production are determined in J774 cells stimulated with either LPS (0.1 μg/mL) or medium from J774 cells stimulated for 24 h with 0.2 μg/mL LPS. Cytokines are determined by ELISA and expressed as % DMSO control at 50 μM inhibitor concentration.

[2] = system: IL-10 production in J774 cells; test: Cytokine production in stimulated J774 cells, IL-10 (ELISA); format: cell-based; conditions: Normal (LPS 0.1 μg/mL)
Protocol: as §3

collagen arthritis model = test: Collagen arthritis model; format: in vivo, Male DBA mice; conditions: administered prior to or at the start of arthritis; 2 to 40 μmol kg−1; vs vehicle
Protocol: The data are obtained using the collagen arthritis model. Male DBA mice (18-22 g) are subcutaneously injected at the tail base with bovine type II collagen (100 μL) on day 1 and day 21. Onset of arthritis occurs over the next 5 days. Treatments are typically selected from A) a mixture of a Compound such as Compound 2 (between 2 to 40 μmol kg^−1) and the vehicle which is typically 1% citratic acid in water or similar. The effect of treatment on arthritis is monitored daily by assessing body weight, paw thickness and qualitative evidence of arthritis (scored from 0 to 3, 0=no evidence of arthritis or inflammation, 3=frank swelling of the paw). At the end of qualitative assessment, animals are sacrificed for toxicological, histological and pathological analysis.

[3] = system: IL-12 production in J774 cells; test: Cytokine production in stimulated J774 cells, IL-12 (ELISA); format: cell-based; conditions: Normal (LPS 0.1 μg/mL)
Protocol: as §3

Jurkat lymphocytes = test: In vitro toxicity: growth inhibition of Jurkat lymphocytes, Alamar Blue; format: cell-based; conditions: DMEM medium
Protocol: as §3

Jurkat = test: Cytotoxicity of the substances (TC50), Jurkat; format: cell-based; conditions: Jurkat cells
[4] = Toxicity on oral administration for 7 days; format: in vivo; conditions: orally as a suspension up to 400 μmole/kg/day for 7 days
Protocol: as §1

[5] = system: TNFa production in J774 cells; test: Cytokine production in stimulated J774 cells, TNFa (ELISA); format: cell-based; conditions: Normal (LPS 0.1 μg/mL)
Protocol: as §3

hERG = target: T1, hERG (Homo sapiens, UniProt Q12809); test: hERG inhibition in Chinese hamster ovary cells expressing the hERG c-DNA (K+ currents); format: cell-based; conditions: CHO cells expressing hERG
T1 construct: expressed in transfected cells; host or cells: Chinese hamster ovary (CHO) cells
Protocol: A major drawback of macrocycles is the inhibition of cardiac ion channels and specifically the channel encoded by the hERG gene inhibition of which is associated with “long Q-T” syndrome in some patients. To determine risk of hERG inhibition, Compounds 2 and 3 were incubated with Chinese hamster ovary cells expressing the hERG c-DNA resulting in detectable K+ currents associated with hERG at the cell surface.

HepG2 = test: Cytotoxicity of the substances (TC50), HepG2; format: cell-based; design: unit not given beside the values; conditions: HepG2 cells
[6] = system: GM_CSF production in J774 cells; test: Cytokine production in stimulated J774 cells, GM-CSF (ELISA); format: cell-based; conditions: Cond. (medium from J774 cells stimulated 24 h with 0.2 μg/mL LPS)
Protocol: as §3

DSS induced colitis = test: Dextransulfate (DSS) model of inflammatory bowel disease; format: in vivo, female C57BLK6 mice; conditions: DSS 2.5% W/V in drinking water; relative to known compounds such as sulfasalazine
Description: Dextransulfate (DSS) is used to induce an inflammatory state in the gut of mice by providing it in the drinking water. In our model, DSS (ICN) was used at 2.5% W/V in drinking water for female C57BLK6 mice (ca. 20 g). Weight was monitored daily as were diarrhea, overall condition and occult blood. Depending on severity, animals were recovered at 5, 7 or 12 days after onset of DSS treatment, and colon and intestine material recovered for histological examination.

BALF TNFa = test: Airway inflammation by inhaled LPS, BALF TNFa by ELISA; format: in vivo, DBA or Swiss female mice; conditions: 20 μmol/kg i.n., 30 minutes prior to LPS challenge
Protocol: as §3
Airway inflammation is induced by inhalation of solutions containing bacterial LPS. 10 μg per mouse is provided intranasally in phosphate buffered saline. 90 minutes after challenge, bronchioalveolar lavage fluid is recovered from the lung using PBS (0.5 mL) injected into the lung via the trachea and frozen prior to analysis for cytokines by ELISA. TNFa is the primary cytokine measured. Compound 2 and other test substances are dissolved in 0.02% citric acid in water, and the pH of the resulting solution is set to 6.2. Compounds are administered 30 minutes prior to challenge either as 25 μL solutions for intranasal use, or as 125 μL volumes for p.o. application in 25 g DBA or Swiss female mice. The results of said interventions include reduction of lung and/or plasma cytokines. Example data are recorded in FIG. 13.

S. aureus = test: Antibiotic dilution assay, S. aureus; format: cell-based; conditions: Staphylococcus aureus; liquid medium, OD600; read-out: Bacterial IC 50 (μM) S. Aureus
Protocol: as §2, §3

HeLa = test: Cytotoxicity of the substances (TC50), HeLa; format: cell-based; conditions: HeLa cells

T1 sequence (Q12809 whole entry): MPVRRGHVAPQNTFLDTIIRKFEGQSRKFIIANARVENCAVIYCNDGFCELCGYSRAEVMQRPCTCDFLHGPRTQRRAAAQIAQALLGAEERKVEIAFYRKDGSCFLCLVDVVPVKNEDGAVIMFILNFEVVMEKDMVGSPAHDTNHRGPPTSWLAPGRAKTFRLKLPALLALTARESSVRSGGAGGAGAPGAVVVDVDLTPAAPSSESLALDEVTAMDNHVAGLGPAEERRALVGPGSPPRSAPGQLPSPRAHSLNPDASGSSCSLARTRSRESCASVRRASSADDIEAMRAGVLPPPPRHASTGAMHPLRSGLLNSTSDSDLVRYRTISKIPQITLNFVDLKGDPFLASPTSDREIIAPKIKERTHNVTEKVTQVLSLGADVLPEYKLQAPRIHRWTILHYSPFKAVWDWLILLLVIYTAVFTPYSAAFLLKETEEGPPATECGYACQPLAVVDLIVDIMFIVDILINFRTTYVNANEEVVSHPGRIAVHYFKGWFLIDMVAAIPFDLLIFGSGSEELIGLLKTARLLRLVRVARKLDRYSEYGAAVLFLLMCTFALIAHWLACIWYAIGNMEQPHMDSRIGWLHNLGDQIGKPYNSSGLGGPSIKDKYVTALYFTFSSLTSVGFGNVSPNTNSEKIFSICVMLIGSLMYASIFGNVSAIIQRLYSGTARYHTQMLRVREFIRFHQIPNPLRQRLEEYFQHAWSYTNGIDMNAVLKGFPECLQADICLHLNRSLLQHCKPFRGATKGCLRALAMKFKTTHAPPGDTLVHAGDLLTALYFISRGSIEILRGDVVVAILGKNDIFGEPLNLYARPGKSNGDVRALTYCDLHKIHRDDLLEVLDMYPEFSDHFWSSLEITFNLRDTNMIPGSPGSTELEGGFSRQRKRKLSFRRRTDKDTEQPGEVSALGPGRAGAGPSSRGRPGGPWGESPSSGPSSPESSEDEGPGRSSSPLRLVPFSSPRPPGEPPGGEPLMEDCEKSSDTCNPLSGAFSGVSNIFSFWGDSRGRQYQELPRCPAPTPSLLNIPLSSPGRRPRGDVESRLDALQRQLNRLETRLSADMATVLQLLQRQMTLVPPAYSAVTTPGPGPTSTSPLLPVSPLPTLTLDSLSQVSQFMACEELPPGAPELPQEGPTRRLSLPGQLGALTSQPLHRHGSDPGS

## CC[C@H]1OC(=O)[C@H](C)C2(O)O[C@](C)(C[C@@H](C)CN(C)[C@H](C)[C@@H](O)[C@]1(C)O)[C@H](O[C@@H]1O[C@H](C)CC(N(C)C)[C@H]1O)[C@H]2C (some centres unmarked) [Compound 2]
[1]; kidney, liver and spleen, LCMS, oral dosing
  accumulation in organs: slightly accumulated in kidney, liver and spleen
[1]; within 24 h
  fraction of the initial value detectable in organs: more than 50%
Ames test (mutagenicity)
  mutagenic activity (Ames test): no mutagenic activity
Plasma TNFalpha
  plasma TNF levels: reduce plasma TNF levels relative to vehicle treated controls
E. coli
  IC50: 1000 µM
[2]
  Cytokine production in J774 cells as % DMSO control, IL-10 Normal 50 μM: 115 % DMSO control
Collagen arthritis model
  arthritis score: reductions in score
  loss in body weight associated with arthritis: reduces loss in body weight
  paw swelling: reductions in score, paw swelling
[3]
  Cytokine production in J774 cells as % DMSO control, IL-12 Normal 50 μM: 42 % DMSO control
Jurkat lymphocytes
  Jurkat Cell toxicity Normal growth limit: 100 µM
Jurkat
  TC50 Jurkat: 40
[4]
  gross toxic effect / weight gain: continued to gain weight during this period suggesting no gross toxic effect
[5]
  Cytokine production in J774 cells as % DMSO control, TNFa Normal 50 μM: 68 % DMSO control
hERG
  hERG inhibition, potency relative to Compound 3: less potent inhibitor than the commercially available Compound 3
HepG2
  TC50 HepG2: 90
[6]
  Cytokine production in J774 cells as % DMSO control, GM_CSF Cond. 50 μM: 160 % DMSO control
DSS induced colitis
  diarrhea severity: reductions in diarrhea severity
  mortality: reduced mortality
  weight loss: protection against weight loss
BALF TNFa
  BALF TNFa (% Vehicle) 20 μmol/kg i.n.: 75 % Vehicle
S. aureus
  IC50: 1340 µM
HeLa
  TC50 HeLa: >100
